What all share (assay): SelectScreen kinase panel, LanthaScreen Eu kinase binding assay
Holding throughout (conditions): read-out: Inhibition percentage at 1 μM
(In TR-FRET formats the signal depends on donor and acceptor labels being close together.)

Assay [1] has as its target T1, BRAF (Homo sapiens, UniProt P15056).
T1 construct: purchased Thermo Fisher Scientific SelectScreen
As for the experimental part:
(§1) The inhibitory activities of the compounds against kinases were tested using the SelectScreen Kinase assay from Thermo Fisher Scientific in Waltham, MA, USA. The LanthaScreen Eu kinase binding assay was used to validate the LIMK1 inhibition activity of the compounds, and was performed according to the manufacturer’s protocol (https://www.thermofisher.com/tw/zt/home/industrial/pharma-biopharma/drug-discovery-development/target-and-lead-identification-and-validation/kinasebiology/kinase-activity-assays/lanthascreentm-eu-kinase-binding-assay/lanthascreen-eu-kinase-binding-assay-validation-table.html). This endpoint assay quantifies inhibitor binding through the displacement of a fluorescently labelled ATP-competitive tracer from LIMK1. A mixture of the 100× compounds, 2× LIMK1/antibody mixture (Eu-anti-His), 4× tracer 236, and kinase buffer were mixed sequentially. After incubation at room temperature for 1 h, the mixture was analysed using a fluorescence plate reader. The kinase inhibition assay results were expressed as the average of two replicates.
(§2) Kinase panel screening was carried out using the SelectScreen Kinase Assay (Thermo Fisher Scientific, Waltham, MA, USA). Three complementary assay formats were applied: the Z′-LYTE kinase assay, LanthaScreen Eu kinase binding assay, and Adapta Universal kinase assay. The kinases selected for this study and the corresponding assay formats are summarised in Supplementary Table S1.

Assay [2] addresses T2, ICK (Homo sapiens, UniProt Q9UPZ9).
T2 construct: purchased Thermo Fisher Scientific SelectScreen
Here is the method: as §1, §2

Assay [3] addresses T3, EPHA3 (Homo sapiens, UniProt P29320).
T3 construct: purchased Thermo Fisher Scientific SelectScreen
As for the experimental part:
as §1, §2

In assay [4] the target is T4, WEE1 (Homo sapiens, UniProt P30291).
T4 construct: purchased Thermo Fisher Scientific SelectScreen
T4 sequence (P30291 whole entry): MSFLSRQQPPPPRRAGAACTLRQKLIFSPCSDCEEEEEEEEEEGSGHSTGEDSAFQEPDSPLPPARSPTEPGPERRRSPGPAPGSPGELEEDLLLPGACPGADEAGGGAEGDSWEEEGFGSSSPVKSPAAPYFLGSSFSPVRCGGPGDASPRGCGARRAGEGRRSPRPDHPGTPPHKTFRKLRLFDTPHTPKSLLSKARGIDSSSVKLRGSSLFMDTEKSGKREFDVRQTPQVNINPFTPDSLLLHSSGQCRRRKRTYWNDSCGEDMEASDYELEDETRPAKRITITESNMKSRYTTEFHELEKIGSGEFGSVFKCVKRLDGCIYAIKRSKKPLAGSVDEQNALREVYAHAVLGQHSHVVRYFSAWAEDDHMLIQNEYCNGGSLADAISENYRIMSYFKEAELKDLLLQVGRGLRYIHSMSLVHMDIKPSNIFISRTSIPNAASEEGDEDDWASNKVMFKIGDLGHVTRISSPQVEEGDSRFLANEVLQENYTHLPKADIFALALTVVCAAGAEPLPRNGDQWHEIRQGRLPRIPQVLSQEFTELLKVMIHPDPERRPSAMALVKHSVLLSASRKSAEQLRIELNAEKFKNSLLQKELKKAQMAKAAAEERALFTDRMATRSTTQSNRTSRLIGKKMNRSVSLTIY
Here is the method:
as §1, §2

Assay [5] concerns the target T5, VRK2 (Homo sapiens, UniProt Q86Y07).
T5 construct: purchased Thermo Fisher Scientific SelectScreen
Here is the method:
as §1, §2

The target of assay [6] is T6, MAP2K1 (MEK1) (Homo sapiens, UniProt Q02750).
T6 construct: purchased Thermo Fisher Scientific SelectScreen
T6 sequence (Q02750 whole entry): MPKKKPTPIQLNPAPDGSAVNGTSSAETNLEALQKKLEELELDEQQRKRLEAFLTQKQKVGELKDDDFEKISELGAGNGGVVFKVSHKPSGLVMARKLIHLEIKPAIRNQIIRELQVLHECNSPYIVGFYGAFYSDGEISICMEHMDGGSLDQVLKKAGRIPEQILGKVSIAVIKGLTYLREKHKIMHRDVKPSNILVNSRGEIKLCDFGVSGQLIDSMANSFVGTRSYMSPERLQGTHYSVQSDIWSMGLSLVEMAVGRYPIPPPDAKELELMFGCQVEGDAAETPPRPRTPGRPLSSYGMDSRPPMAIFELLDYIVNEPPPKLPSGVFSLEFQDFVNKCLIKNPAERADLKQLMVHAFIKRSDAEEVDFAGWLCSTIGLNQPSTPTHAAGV
As for the experimental part: as §1, §2

Assay [7] has as its target T7, TGFBR1 (ALK5) (Homo sapiens, UniProt P36897).
T7 construct: purchased Thermo Fisher Scientific SelectScreen
Here is the method: as §1, §2

The target in assay [8] is T8, LIMK2 (Homo sapiens, UniProt P53671).
T8 construct: purchased Thermo Fisher Scientific SelectScreen
T8 sequence (P53671 whole entry): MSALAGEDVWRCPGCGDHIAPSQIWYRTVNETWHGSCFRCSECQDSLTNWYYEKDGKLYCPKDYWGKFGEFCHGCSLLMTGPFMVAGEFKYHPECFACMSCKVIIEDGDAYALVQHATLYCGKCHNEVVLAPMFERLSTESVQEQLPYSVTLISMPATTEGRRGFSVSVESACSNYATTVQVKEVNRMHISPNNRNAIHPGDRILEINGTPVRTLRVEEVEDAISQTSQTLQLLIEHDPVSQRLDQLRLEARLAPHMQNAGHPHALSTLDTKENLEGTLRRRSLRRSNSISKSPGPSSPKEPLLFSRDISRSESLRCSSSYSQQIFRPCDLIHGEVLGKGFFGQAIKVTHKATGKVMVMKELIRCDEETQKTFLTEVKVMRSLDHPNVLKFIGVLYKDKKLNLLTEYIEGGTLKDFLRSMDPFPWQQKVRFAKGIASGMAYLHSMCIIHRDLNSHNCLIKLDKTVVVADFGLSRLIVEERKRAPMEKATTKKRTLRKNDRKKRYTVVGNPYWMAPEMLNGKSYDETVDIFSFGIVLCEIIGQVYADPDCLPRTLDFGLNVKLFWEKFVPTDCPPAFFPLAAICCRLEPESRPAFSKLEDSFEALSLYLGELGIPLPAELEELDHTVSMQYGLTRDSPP
As for the experimental part:
as §1, §2

Usually inhibition stands for the relative decrease from the control value, in per cent.

T3 sequence (P29320 21-983): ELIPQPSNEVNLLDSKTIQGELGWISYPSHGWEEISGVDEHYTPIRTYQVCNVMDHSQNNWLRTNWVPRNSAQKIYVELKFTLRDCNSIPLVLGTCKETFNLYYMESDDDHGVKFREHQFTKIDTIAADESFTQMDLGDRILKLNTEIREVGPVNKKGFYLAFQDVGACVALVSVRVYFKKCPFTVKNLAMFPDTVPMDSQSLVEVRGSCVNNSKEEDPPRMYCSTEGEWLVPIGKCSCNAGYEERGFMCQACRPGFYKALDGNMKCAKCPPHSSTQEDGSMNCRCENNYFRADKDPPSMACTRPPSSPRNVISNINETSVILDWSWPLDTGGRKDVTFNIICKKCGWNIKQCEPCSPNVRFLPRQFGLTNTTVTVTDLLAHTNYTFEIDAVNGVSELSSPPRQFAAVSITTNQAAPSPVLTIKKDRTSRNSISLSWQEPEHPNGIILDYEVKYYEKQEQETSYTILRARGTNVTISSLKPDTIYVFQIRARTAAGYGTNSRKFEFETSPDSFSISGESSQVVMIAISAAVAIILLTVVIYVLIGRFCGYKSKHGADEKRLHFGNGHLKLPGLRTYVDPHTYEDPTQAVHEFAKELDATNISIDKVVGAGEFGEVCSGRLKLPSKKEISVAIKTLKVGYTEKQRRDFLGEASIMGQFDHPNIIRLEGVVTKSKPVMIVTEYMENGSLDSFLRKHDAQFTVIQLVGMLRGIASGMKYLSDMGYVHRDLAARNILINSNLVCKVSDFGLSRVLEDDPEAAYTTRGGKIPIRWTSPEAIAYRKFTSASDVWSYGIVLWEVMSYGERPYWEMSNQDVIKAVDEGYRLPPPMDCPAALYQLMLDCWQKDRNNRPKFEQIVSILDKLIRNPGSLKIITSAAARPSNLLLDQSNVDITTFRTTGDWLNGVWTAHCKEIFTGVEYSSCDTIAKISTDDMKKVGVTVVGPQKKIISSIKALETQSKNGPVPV
T1 sequence (P15056 whole entry): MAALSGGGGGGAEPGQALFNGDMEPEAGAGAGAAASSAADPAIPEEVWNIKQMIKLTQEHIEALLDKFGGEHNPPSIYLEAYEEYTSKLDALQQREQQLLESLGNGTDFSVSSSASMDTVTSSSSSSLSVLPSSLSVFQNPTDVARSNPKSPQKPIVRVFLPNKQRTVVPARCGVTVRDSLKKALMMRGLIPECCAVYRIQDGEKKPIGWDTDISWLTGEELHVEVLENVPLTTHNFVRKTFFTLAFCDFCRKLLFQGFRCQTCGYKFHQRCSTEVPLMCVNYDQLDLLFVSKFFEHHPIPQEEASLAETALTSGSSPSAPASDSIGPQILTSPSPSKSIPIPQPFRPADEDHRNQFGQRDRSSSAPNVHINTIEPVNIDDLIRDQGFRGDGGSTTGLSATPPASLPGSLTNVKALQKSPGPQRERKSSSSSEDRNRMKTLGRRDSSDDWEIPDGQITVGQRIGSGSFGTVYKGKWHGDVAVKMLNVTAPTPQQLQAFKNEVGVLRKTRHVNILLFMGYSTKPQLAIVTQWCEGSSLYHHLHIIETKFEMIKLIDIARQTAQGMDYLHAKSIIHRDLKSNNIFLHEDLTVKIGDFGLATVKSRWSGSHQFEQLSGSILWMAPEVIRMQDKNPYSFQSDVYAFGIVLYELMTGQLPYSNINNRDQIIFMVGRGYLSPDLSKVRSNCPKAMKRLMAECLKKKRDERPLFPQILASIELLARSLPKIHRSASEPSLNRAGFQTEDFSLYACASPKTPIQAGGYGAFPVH
T2 sequence (Q9UPZ9 whole entry): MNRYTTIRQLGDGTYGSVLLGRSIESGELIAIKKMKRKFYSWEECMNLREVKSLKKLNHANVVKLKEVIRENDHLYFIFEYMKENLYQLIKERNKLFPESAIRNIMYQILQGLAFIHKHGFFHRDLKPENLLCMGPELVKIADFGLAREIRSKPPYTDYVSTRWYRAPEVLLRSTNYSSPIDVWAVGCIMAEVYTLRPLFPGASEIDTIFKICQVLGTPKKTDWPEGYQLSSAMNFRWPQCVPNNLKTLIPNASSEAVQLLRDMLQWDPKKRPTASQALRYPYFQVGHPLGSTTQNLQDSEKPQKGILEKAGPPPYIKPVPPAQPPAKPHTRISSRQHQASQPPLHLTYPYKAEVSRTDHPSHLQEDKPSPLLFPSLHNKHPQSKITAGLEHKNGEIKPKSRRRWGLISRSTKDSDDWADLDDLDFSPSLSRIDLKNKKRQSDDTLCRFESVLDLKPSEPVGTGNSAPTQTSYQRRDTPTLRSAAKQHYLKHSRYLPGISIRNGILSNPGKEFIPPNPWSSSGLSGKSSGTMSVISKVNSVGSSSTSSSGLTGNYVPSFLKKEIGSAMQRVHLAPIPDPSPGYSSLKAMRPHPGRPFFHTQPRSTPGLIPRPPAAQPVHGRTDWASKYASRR
T7 sequence (P36897 34-503): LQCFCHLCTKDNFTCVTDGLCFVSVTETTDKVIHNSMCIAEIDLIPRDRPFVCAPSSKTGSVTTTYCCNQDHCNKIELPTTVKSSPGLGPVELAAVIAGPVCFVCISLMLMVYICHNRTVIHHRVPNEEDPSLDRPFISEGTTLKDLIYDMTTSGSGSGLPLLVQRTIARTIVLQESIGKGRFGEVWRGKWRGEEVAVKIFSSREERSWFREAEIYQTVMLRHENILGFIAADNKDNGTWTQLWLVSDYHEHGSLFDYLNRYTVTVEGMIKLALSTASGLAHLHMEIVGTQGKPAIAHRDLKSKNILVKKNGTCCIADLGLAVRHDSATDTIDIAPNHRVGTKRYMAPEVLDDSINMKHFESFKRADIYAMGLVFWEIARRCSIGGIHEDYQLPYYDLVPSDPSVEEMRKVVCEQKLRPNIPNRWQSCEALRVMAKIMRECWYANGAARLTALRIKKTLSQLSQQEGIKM
T5 sequence (Q86Y07 whole entry): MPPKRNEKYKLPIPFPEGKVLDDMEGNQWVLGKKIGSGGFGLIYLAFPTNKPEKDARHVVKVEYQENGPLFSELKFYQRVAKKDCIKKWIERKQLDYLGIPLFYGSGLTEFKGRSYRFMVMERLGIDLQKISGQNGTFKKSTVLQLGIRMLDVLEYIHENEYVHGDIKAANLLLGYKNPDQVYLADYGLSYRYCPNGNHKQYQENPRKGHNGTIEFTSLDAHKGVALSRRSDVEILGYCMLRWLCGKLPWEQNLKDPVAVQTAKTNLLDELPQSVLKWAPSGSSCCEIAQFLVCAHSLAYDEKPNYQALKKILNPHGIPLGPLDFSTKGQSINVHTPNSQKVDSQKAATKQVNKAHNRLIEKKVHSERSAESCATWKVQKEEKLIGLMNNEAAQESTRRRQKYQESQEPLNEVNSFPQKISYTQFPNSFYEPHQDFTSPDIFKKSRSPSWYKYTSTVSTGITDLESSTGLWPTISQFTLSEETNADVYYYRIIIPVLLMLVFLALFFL

`O=C(/C=C/c1ccc(O)c(O)c1)CCCCn1ccc2c(O)cccc21` [Compound 13a, (E)-1-(3,4-dihydroxyphenyl)-7-(4-hydroxy-1H-indol-1-yl)hept-1-en-3-one]: the inhibition at 1 µM in assay [1] was 16%; in assay [2], 32%; in assay [3], 2%; in assay [4], 44%; in assay [5] it was 3%; in assay [6] it was 4%. The figures for the inhibition at 1 µM in assay [7] and in assay [8] were 24% and 30%, respectively.

Source of the values: PMC12624955, “Exploring diarylheptanoid derivatives to target LIMK1 as potential agents against colorectal cancer” (Journal of Enzyme Inhibition and Medicinal Chemistry, 2025).
